Measurements: patent publication US20150031668A1, “CHROMAN DERIVATIVES AS TRPM8 INHIBITORS” (AMGEN INC., priority 2013, published 2015)

What was measured:
[1] = system: icilin induced wet-dog shakes; experiment: Inhibition of icilin induced shaking (wet-dog shakes) in rats; type: in vivo, male Sprague Dawley rats; details: po, rat
Experimental: Inhibition of Icilin Induced Shaking in Rats
Example compounds at doses ranging from 0.01 to 3 mg/kg (p.o, suspended in 5% Tween80/Oralplus or suspended in 2% HPMC-1% Tween-80 pH2.2 with MSA, 5 mL/kg) can be administered to male Sprague Dawley rats (200-300 g, Harlan, n=6-8/treatment) 2 h before icilin to assess the ability to block the spontaneous wet-dog shake phenomena induced by icilin (i.p., suspended in 100% PEG400 at 0.5 mg/kg, 1 mL/kg or p.o., suspended in 2% HPMC-1% Tween-80 at 3 mg/kg, 2.5 mL/kg). Spontaneous wet-dog shakes may be counted manually by two blinded observers or using LABORAS automation (Metris) for 30 min post-icilin. The synthesized and prophetic example compounds may be measured using these procedures and will be found to reduce the spontaneous wet dog shake phenomena induced by icilin.

human TRPM8 = biological target: T1, human TRPM8 (Homo sapiens, UniProt Q7Z2W7); experiment: Luminescence readout assay for measuring intracellular calcium (aequorin, CHO cells expressing human TRPM8; icilin, L-menthol or cold activation); type: cell-based; details: CHO cells expressing human TRPM8, icilin activation (1 μM), aequorin luminescence; read-out: hTRPM8 IC50
T1 construct: expressed in transfected cells; host or cells: Chinese hamster ovary (CHO) cells, T-REx tetracycline-inducible expression system (Invitrogen); co-transfected with pcDNA3.1 aequorin
Procedure, shortened: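 Activation was by 1 μM icilin, 100 μM L-menthol (test compound 2.5 min ahead) or cold buffer below 10° C (compound 1 min ahead). Calcium rise measured as aequorin luminescence in CHO cells with tetracycline-inducible human TRPM8.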

T1 sequence (Q7Z2W7 whole entry): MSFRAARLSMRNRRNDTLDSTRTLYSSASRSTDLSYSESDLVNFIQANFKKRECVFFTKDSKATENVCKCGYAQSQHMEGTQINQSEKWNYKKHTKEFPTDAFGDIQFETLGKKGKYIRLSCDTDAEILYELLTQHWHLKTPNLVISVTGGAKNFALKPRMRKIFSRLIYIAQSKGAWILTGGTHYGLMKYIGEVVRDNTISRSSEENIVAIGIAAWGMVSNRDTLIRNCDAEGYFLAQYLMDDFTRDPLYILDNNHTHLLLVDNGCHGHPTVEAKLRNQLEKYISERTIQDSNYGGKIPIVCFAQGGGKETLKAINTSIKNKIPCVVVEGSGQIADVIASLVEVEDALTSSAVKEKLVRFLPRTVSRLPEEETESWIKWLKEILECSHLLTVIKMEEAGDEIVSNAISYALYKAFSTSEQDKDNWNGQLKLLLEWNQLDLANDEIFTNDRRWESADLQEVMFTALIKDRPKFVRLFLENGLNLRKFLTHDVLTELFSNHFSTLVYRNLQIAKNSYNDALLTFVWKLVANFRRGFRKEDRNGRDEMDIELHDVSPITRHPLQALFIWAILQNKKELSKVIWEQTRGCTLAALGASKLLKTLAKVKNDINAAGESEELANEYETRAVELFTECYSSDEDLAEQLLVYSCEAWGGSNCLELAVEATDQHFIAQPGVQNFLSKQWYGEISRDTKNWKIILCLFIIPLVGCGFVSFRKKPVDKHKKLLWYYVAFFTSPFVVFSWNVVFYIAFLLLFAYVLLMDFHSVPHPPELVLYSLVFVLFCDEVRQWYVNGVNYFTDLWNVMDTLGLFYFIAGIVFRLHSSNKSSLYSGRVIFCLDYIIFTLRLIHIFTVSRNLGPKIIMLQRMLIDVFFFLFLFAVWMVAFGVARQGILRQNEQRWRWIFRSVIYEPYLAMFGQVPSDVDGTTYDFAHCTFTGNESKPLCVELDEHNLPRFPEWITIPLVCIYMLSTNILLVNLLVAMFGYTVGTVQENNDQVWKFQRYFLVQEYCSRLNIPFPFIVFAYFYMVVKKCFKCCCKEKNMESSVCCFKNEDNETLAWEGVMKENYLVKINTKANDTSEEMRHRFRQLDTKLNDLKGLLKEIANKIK

SMILES | inhibition in vivo at 1 mg/kg [1] [%] | IC50 (human TRPM8) [µM] | inhibition in vivo at 0.3 mg/kg ([1]; dose 0.3 mg/kg) [%]
O=C(O)c1ccc(C(=O)N[C@]2(c3ccc(Cl)c(Cl)c3)CCOc3cccnc32)nc1 [Example 318, (S)-6-((4-(3,4-dichloro-phenyl)-3,4-dihydro-2H-pyrano[3,2-b]pyridin-4-yl)carbamoyl) nicotinic acid] | 86 | 0.025 | 
Cc1cc(C(=O)N[C@]2(c3ccc(OC(F)(F)F)cc3)CCOc3cccnc32)ccc1C(=O)O [Example 319, (S)-2-methyl-4-((4-(4-(trifluoro-methoxy)phenyl)-3,4-dihydro-2H-pyrano[3,2-b]pyridin-4-yl)carbamoyl) benzoic acid] |  | 0.015 | 75
Nc1cc(C(=O)N[C@]2(c3ccc(OC(F)(F)F)c(F)c3)CCOc3cccnc32)ccc1C(=O)O [Example 321, (S)-2-amino-4-((4-(3-fluoro-4-(trifluoro-methoxy)phenyl)-3,4-dihydro-2H-pyrano[3,2-b]pyridin-4-yl)carbamoyl) benzoic acid] | 95 | 0.012 | 
O=C(O)c1ccc(C(=O)N[C@]2(c3ccc(C(F)(F)F)cc3)CCOc3cccnc32)nc1 [Example 326, (S)-6-((4-(4-(trifluoro-methyl)phenyl)-3,4-dihydro-2H-pyrano[3,2-b]pyridin-4-yl)carbamoyl) nicotinic acid] | 98 | 0.033 | 
O=C(O)c1ccc(C(=O)N[C@]2(c3ccc(OC(F)(F)F)cc3)CCOc3cccnc32)nc1 [Example 327, (S)-6-((4-(4-(trifluoro-methoxy)phenyl)-3,4-dihydro-2H-pyrano[3,2-b]pyridin-4-yl)carbamoyl) nicotinic acid] | 93 | 0.023 | 
Cc1cc(C(=O)N[C@]2(c3ccc(OC(F)(F)F)c(F)c3)CCOc3cccnc32)ccc1C(=O)O [Example 332, (S)-4-((4-(3-fluoro-4-(trifluoromethoxy)phenyl)-3,4-dihydro-2H-pyrano[3,2-b]pyridin-4-yl)carbamoyl)-2-methylbenzoic acid] | 99 | 0.016 | 
